# Experimental data taken from patent US20230416248A1, “COMPOUNDS AND USES THEREOF” (Foghorn Therapeutics Inc., priority 2020, published 2023).
# Where two headings read alike, the source gives them in different places.
# Legend:
# BRM = molecular target: T1, BRM (Homo sapiens, UniProt P51531); test: ATPase catalytic activity of BRM, ADP-Glo in vitro biochemical assay; conditions: for IC50: 30 nM BRM, 400 μM ATP; for Ratio* (BRG1 IC50 (μM) divided by BRM IC50 (μM)): selectivity ratio BRG1 IC50 / BRM IC50
# T1 construct: made in house; host or cells: High Five insect cells
# T1 sequence (P51531 whole entry): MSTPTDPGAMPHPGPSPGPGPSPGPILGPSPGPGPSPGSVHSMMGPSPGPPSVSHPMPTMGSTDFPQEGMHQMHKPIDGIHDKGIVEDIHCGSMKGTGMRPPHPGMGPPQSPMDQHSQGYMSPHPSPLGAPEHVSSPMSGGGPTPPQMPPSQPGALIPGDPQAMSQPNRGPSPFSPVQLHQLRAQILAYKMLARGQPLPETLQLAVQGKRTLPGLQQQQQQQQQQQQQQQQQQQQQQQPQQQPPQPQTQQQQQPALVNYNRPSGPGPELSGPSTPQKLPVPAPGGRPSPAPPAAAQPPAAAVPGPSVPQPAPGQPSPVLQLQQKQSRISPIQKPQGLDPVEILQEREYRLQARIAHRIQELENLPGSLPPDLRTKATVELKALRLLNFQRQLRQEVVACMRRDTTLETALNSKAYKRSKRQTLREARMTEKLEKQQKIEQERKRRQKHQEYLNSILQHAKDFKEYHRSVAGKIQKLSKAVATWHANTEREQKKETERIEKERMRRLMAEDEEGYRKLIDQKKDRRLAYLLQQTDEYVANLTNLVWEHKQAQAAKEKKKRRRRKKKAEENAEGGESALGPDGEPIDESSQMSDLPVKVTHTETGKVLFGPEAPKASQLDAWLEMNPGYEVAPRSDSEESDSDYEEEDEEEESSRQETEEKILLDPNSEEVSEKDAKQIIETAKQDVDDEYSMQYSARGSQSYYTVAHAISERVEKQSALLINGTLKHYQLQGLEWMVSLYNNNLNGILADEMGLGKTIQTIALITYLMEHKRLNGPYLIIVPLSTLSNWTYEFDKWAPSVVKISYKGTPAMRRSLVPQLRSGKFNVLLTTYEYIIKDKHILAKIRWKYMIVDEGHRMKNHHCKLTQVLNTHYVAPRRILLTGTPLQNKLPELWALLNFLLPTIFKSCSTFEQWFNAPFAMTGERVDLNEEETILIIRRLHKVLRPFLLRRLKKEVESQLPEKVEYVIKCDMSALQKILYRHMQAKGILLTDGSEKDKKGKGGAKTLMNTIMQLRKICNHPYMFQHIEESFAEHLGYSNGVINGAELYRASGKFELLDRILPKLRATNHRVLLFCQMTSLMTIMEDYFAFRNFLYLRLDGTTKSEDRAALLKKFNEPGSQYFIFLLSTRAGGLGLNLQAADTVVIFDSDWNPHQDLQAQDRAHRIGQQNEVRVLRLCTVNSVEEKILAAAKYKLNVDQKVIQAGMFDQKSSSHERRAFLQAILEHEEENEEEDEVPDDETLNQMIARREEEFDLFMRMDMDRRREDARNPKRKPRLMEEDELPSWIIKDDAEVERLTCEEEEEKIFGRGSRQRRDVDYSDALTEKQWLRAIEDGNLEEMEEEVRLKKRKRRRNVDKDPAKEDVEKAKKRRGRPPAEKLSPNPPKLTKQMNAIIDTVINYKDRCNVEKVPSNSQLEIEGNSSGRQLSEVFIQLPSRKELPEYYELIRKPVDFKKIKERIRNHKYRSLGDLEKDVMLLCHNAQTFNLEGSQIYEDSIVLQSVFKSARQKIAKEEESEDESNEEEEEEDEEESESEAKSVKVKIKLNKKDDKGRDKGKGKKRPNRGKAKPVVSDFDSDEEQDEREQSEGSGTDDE
# Outline: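 ADP-Glo luminescence, after depletion of leftover ATP and conversion of ADP, reported the activity. The 1 h room-temperature reaction held 400 μM ATP, 20 nM salmon sperm DNA and 30 nM BRM in 20 mM Tris pH 8, 20 mM MgCl2, 50 mM NaCl, 0.1% Tween-20, 1 mM DTT.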
# BRG-1 = molecular target: T2, BRG-1 (Homo sapiens, UniProt P51532); test: ATPase catalytic activity of BRG-1, ADP-Glo in vitro biochemical assay; conditions: 30 nM BRG-1, 400 μM ATP, read-out: BRG1 IC50
# T2 construct: made in house; host or cells: High Five insect cells
# T2 sequence (P51532 whole entry): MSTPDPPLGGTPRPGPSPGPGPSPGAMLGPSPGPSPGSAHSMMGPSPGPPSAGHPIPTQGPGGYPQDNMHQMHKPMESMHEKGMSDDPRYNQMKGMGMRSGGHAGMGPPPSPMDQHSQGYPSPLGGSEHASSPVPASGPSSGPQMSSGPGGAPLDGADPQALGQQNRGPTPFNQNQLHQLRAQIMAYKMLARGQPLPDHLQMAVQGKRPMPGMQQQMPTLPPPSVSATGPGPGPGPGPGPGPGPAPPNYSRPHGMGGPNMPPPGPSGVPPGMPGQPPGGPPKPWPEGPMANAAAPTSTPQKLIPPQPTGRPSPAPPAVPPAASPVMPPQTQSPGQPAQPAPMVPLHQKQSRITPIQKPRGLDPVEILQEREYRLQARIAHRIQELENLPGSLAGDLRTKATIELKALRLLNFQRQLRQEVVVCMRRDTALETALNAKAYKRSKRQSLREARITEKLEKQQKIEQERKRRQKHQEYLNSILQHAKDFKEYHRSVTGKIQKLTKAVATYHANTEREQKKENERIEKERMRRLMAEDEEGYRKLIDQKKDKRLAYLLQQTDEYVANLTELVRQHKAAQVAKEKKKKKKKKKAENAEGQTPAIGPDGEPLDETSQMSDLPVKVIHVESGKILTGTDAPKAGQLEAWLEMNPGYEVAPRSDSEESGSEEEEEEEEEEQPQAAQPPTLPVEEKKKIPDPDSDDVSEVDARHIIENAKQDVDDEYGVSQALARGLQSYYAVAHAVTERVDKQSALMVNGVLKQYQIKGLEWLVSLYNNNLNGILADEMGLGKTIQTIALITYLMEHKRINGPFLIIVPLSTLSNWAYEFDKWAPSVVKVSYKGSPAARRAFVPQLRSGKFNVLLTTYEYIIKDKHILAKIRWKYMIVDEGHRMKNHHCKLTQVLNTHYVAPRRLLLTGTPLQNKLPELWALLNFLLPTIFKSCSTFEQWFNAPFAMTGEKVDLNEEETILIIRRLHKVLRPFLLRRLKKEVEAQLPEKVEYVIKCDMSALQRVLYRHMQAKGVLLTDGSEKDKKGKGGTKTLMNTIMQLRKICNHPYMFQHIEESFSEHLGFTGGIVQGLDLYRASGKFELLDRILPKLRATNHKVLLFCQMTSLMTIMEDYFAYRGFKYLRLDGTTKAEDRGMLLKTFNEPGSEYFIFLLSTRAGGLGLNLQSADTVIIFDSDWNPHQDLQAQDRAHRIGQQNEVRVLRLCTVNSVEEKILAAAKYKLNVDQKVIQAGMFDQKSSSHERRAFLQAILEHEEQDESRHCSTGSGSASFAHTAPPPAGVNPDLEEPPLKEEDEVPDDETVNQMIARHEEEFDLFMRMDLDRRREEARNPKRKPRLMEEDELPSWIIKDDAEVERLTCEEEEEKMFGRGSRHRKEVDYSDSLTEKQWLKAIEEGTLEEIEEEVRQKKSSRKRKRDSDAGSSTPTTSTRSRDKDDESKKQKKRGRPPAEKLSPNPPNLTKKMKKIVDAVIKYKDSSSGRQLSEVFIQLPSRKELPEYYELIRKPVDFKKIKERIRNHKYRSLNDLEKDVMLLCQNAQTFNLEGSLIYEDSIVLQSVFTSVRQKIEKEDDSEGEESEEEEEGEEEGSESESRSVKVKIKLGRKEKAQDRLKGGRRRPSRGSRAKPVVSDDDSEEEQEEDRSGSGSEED
# Outline: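 Once the ATPase reaction finished, leftover ATP was depleted over 40 minutes at room temperature. Generated ADP was next turned back into ATP during a 60-minute room-temperature step. Luciferase-derived light was then measured.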
# [1] = ATPase catalytic activity, ADP-Glo
IC50 (BRM; ADP-Glo ATPase assay) [nM],Ratio* (BRG1 IC50 (μM) divided by BRM IC50 (μM)) (BRM),IC50 (BRG-1; ADP-Glo ATPase assay) [nM],IC50 (BRM; [1]) [nM],Ratio* (BRM; ratio of BRG1 IC50 to BRM IC50),IC50 (BRG-1; [1]) [nM],Ratio* (BRM; ratio BRG1 IC50 / BRM IC50),SMILES
19.8,9.33,185,–,–,–,–,Cn1ccc2c(-c3ccc4cnc(CNC(=O)c5ccc6c(c5)S(=O)(=O)CCOC6)cc4n3)ccc(Cl)c21 [Compound 43]
–,–,–,11.7,16.04,187,–,COCc1ccc2c(c1)N(c1ccc3cnc(CNC(=O)c4ccc5c(c4)S(=O)(=O)CCOC5)cc3n1)CCC2 [Compound 605]
–,–,–,14.6,10.43,152,–,CCN(CC1COC1)c1cccc(-c2ccc3cnc(CNC(=O)c4ccc5c(c4)S(=O)(=O)CCOC5)cc3n2)n1 [Compound 370]
12.4,–,143,–,–,–,11.55,CN(c1cnc2c(c1)OCCN2c1ccc2cnc(CNC(=O)c3ccc4c(c3)S(=O)(=O)CCOC4)cc2n1)C1CC(F)(F)C1 [Compound 817]
22.5,16.99,382,–,–,–,–,O=C(NCc1cc2nc(-c3ccc(F)c(OC(F)F)n3)ccc2cn1)c1ccc2c(c1)S(=O)(=O)CCOC2 [Compound 137]
–,–,–,11.2,5.69,63.9,–,C[C@@H]1CN(c2cccc(-c3ccc4cnc(CNC(=O)c5ccc6c(c5)S(=O)(=O)CCC(F)(F)C6)cc4n3)n2)C[C@H](C)O1 [Compound 587]
–,–,–,76.5,8.53,653,–,COC[C@H]1C[C@H]1N(C)c1cccc(-c2ccc3cnc(CNC(=O)c4ccc5c(c4)S(=O)(=O)CCOC5)cc3n2)n1 [Compound 412]
13.5,–,194,–,–,–,14.38,O=C(NCc1cc2cc(N3CCOc4ccc(C5CC5)cc43)ccc2cn1)c1ccc2c(c1)S(=O)(=O)CCOC2 [Compound 787]
13.7,–,135,–,–,–,9.88,O=C(NCc1cc2nc(N3CCCc4cc5c(cc43)OCO5)ccc2cn1)c1ccc2c(c1)S(=O)(=O)CCOC2 [Compound 792]
166,9.79,1620,–,–,–,–,O=C(NCc1cc2nc(-c3ccnc([C@@H]4CC4(F)F)n3)ccc2cn1)c1ccc2c(c1)S(=O)(=O)CCOC2 [Compound 218]
4.7,9.62,45.2,–,–,–,–,C[C@@H]1CN(c2cccc(-c3cnc4cnc(CNC(=O)c5ccc6c(c5)S(=O)(=O)CCOC6)cc4c3)n2)C[C@H](C)O1 [Compound 161]
–,–,–,12.9,10.75,138,–,COCCN(CC(C)(F)F)c1cccc(-c2ccc3cnc(CNC(=O)c4ccc5c(c4)S(=O)(=O)CCOC5)cc3n2)n1 [Compound 373]
8.8,–,118,–,–,–,13.42,O=C(NCc1cc2nc(N3CCCc4ccc(OCC5CCCO5)cc43)ccc2cn1)c1ccc2c(c1)S(=O)(=O)CCOC2 (stereo not drawn) [Compound 747]
–,–,–,11,43.09,473,–,CCOc1cccc(-c2ccc3cnc(CNC(=O)c4ccc5c(c4)S(=O)(=O)[C@@H](C)COC5)cc3n2)n1 [Compound 330]
49.7,14.09,700,–,–,–,–,CS(=O)(=O)c1cc(C(=O)NCc2cc3nc(-c4cccc(N5CC[C@@H]6COC[C@@H]6C5)n4)ccc3cn2)ccc1C(F)F [Compound 96]
19.4,9.11,177,–,–,–,–,CO[C@H]1CCN(c2cccc(-c3ccc4cnc(CNC(=O)c5ccc6c(c5)S(=O)(=O)CCOC6)cc4n3)n2)C1 [Compound 201]
–,–,–,25.1,7.37,185,–,O=C(NCc1cc2nc(-c3cccc(N4CCOCC(F)(F)C4)n3)ccc2cn1)c1ccc2c(c1)S(=O)(=O)CCOC2 [Compound 341]
–,–,–,25.5,9.80,250,–,O=C(NCc1cc2nc(N3CCCc4c(Cl)ccnc43)ccc2cn1)c1ccc2c(c1)S(=O)(=O)CCOC2 [Compound 478]

IC50 (BRM; ADP-Glo ATPase assay) [nM],Ratio* (BRG1 IC50 (μM) divided by BRM IC50 (μM)) (BRM),IC50 (BRG-1; ADP-Glo ATPase assay) [nM],IC50 (BRM; [1]) [nM],Ratio* (BRM; ratio of BRG1 IC50 to BRM IC50),IC50 (BRG-1; [1]) [nM],Ratio* (BRM; ratio BRG1 IC50 / BRM IC50),SMILES
–,–,–,8.6,15.19,130,–,COc1nc(C(F)F)ccc1-c1ccc2cnc(CNC(=O)c3ccc4c(c3)S(=O)(=O)CCOC4)cc2n1 [Compound 329]
–,–,–,13.2,13.32,176,–,O=C(NCc1cc2nc(N3CCC4(CC4)c4cccnc43)ccc2cn1)c1ccc2c(c1)S(=O)(=O)CCOC2 [Compound 600]
689,7.14,4920,–,–,–,–,O=C(NCc1cc2nc(N3CCc4cnccc4C3)ccc2cn1)c1ccc2c(c1)S(=O)(=O)CCOC2 [Compound 87]
–,–,–,157,15.21,2390,–,COC1CCN(c2ccc3cnc(CNC(=O)c4ccc5c(c4)S(=O)(=O)CCOC5)cc3n2)c2ncccc21 (stereo not drawn) [Compound 496]
–,–,–,15.2,13.70,209,–,CO[C@@H]1C[C@H]1N(C)c1cccc(-c2ccc3cnc(CNC(=O)c4ccc5c(c4)S(=O)(=O)[C@@H](C)COC5)cc3n2)n1 [Compound 672]
19.4,–,376,–,–,–,19.41,O=C(NCc1cc2nc(N3CCOc4cc(C5(C(F)F)CC5)cnc43)ccc2cn1)c1ccc2c(c1)S(=O)(=O)CCOC2 [Compound 847]
–,–,–,3.8,9.28,35.7,–,O=C(NCc1cc2nc(N3CCCc4c(OC5CC5)ccnc43)ccc2cn1)c1ccc2c(c1)S(=O)(=O)CCOC2 [Compound 677]
19.3,25.69,497,–,–,–,–,O=C(NCc1cc2nc(-c3cccc(OC(F)F)n3)ccc2cn1)c1ccc2c(c1)S(=O)(=O)CCOC2 [Compound 285]
–,–,–,10.1,8.79,88.3,–,CO[C@H]1C[C@@H]1N(C)c1cccc(-c2ccc3cnc(CNC(=O)c4ccc5c(c4)S(=O)(=O)[C@@H](C)COC5)cc3n2)n1 [Compound 670]
92.3,–,801,–,–,–,8.67,COc1nn(C(F)F)cc1-c1ccc2cnc(CNC(=O)c3ccc4c(c3)S(=O)(=O)CCOC4)cc2n1 [Compound 806]
121,4.71,570,–,–,–,–,COCCN1CCCc2c(-c3ccc4cnc(CNC(=O)c5ccc6c(c5)S(=O)(=O)CCOC6)cc4n3)cccc21 [Compound 84]
74.5,6.12,457,–,–,–,–,O=C(NCc1cc2nc(N3CCc4cccnc43)ccc2cn1)c1ccc2c(c1)S(=O)(=O)CCOC2 [Compound 47]
–,–,–,55.3,30.77,1700,–,COCCc1ccc2c(n1)N(c1ccc3cnc(CNC(=O)c4ccc5c(c4)S(=O)(=O)CCOC5)cc3n1)CCC2 [Compound 651]
–,–,–,13,14.45,189,–,CCOC1CCS(=O)(=O)c2cc(C(=O)NCc3cc4nc(-c5cccc(N6CC(C)OC(C)C6)n5)ccc4cn3)ccc2C1 (stereo not drawn) [Compound 485]
36.7,11.15,409,–,–,–,–,C[C@@H]1CN(c2cccc(-c3ccc4cnc(CNC(=O)c5ccc6c(c5)S(=O)(=O)[C@H](C)COC6)cc4n3)n2)C[C@H](C)O1 [Compound 159]
–,–,–,568,8.79,4990,–,COCCn1cc2c(-c3ccc4cnc(CNC(=O)c5ccc6c(c5)S(=O)(=O)CCOC6)cc4n3)cccc2n1 [Compound 673]
45.7,14.90,682,–,–,–,–,CS(=O)(=O)c1cc(C(=O)NCc2cc3nc(-c4cccc(N5CC[C@H]6COC[C@H]6C5)n4)ccc3cn2)ccc1Cl [Compound 76]
9.3,–,255,–,–,–,27.53,COCc1ccc2c(c1F)N(c1ccc3cnc(CNC(=O)c4ccc5c(c4)S(=O)(=O)CCOC5)cc3n1)CCC2 [Compound 711]
